Source: PubChem BioAssay (NCI)
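GI50 is the concentration that inhibits growth by half. The concentration for full growth arrest is given as TGI.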

Tests used:
Test in all cases: NCI anticancer screen, dose series, 384-well format
SF-295 CNS = test system: SF-295 CNS
MDA-MB-468 breast = test system: MDA-MB-468 breast
SK-MEL-5 melanoma = test system: SK-MEL-5 melanoma
OVCAR-5 ovarian = test system: OVCAR-5 ovarian
ACHN renal = test system: ACHN renal
NCI-H322M lung = test system: NCI-H322M lung
KM12 colon = test system: KM12 colon
MDA-MB-231 breast = test system: MDA-MB-231 breast
SF-539 CNS = test system: SF-539 CNS
SK-OV-3 ovarian = test system: SK-OV-3 ovarian
MALME-3M melanoma = test system: MALME-3M melanoma
SN12C renal = test system: SN12C renal
OVCAR-3 ovarian = test system: OVCAR-3 ovarian
RPMI-8226 leukemia = test system: RPMI-8226 leukemia
DU-145 prostate = test system: DU-145 prostate
HS 578T breast = test system: HS 578T breast
SNB-75 CNS = test system: SNB-75 CNS
SK-MEL-2 melanoma = test system: SK-MEL-2 melanoma
U251 glioblastoma = test system: U251 glioblastoma
SR leukemia = test system: SR leukemia
LOX IMVI melanoma = test system: LOX IMVI melanoma
HCC-2998 colon = test system: HCC-2998 colon
SF-268 CNS = test system: SF-268 CNS
HOP-62 NSCLC = test system: HOP-62 NSCLC
K-562 leukemia = test system: K-562 leukemia
NCI-H522 lung = test system: NCI-H522 lung
M14 melanoma = test system: M14 melanoma
TK-10 renal = test system: TK-10 renal
NCI-H460 NSCLC = test system: NCI-H460 NSCLC
SK-MEL-28 melanoma = test system: SK-MEL-28 melanoma
NCI-H23 lung = test system: NCI-H23 lung
NCI/ADR-RES ovarian = test system: NCI/ADR-RES ovarian
BT-549 breast = test system: BT-549 breast
OVCAR-8 ovarian = test system: OVCAR-8 ovarian
EKVX NSCLC = test system: EKVX NSCLC
A549 NSCLC = test system: A549 NSCLC
HOP-92 NSCLC = test system: HOP-92 NSCLC
CAKI-1 renal = test system: CAKI-1 renal
MCF7 breast = test system: MCF7 breast
SW-620 colon = test system: SW-620 colon
PC-3 prostate = test system: PC-3 prostate
786-0 renal = test system: 786-0 renal
T-47D breast = test system: T-47D breast
UACC-62 melanoma = test system: UACC-62 melanoma
COLO 205 colon = test system: COLO 205 colon
HL-60(TB) leukemia = test system: HL-60(TB) leukemia
NCI-H226 lung = test system: NCI-H226 lung

SMILES: Cc1ccc2c(N)c(C(=O)N[C@H]3CCc4cc(N5CC6CCC(C5)N6)ccc4C3)sc2n1
- GI50 (SF-295 CNS): 335 nM
- TGI (SF-295 CNS): 919 nM
- GI50 (MDA-MB-468 breast): 206 nM
- TGI (MDA-MB-468 breast): 691 nM
- GI50 (SK-MEL-5 melanoma): 111 nM
- TGI (SK-MEL-5 melanoma): 436 nM
- GI50 (OVCAR-5 ovarian): 277 nM
- TGI (OVCAR-5 ovarian): 795 nM
- GI50 (ACHN renal): 101 nM
- TGI (ACHN renal): 707 nM
- GI50 (NCI-H322M lung): 208 nM
- TGI (NCI-H322M lung): 660 nM
- GI50 (KM12 colon): 228 nM
- TGI (KM12 colon): 1200 nM
- GI50 (MDA-MB-231 breast): 219 nM
- TGI (MDA-MB-231 breast): 972 nM
- GI50 (SF-539 CNS): 207 nM
- TGI (SF-539 CNS): 663 nM
- GI50 (SK-OV-3 ovarian): 99 nM
- TGI (SK-OV-3 ovarian): 940 nM
- GI50 (MALME-3M melanoma): 164 nM
- TGI (MALME-3M melanoma): 443 nM
- GI50 (SN12C renal): 124 nM
- TGI (SN12C renal): 647 nM
- GI50 (OVCAR-3 ovarian): 129 nM
- TGI (OVCAR-3 ovarian): 513 nM
- GI50 (RPMI-8226 leukemia): 66.4 nM
- TGI (RPMI-8226 leukemia): 192 nM
- GI50 (DU-145 prostate): 104 nM
- TGI (DU-145 prostate): 605 nM
- GI50 (HS 578T breast): 180 nM
- TGI (HS 578T breast): 543 nM
- GI50 (SNB-75 CNS): 219 nM
- TGI (SNB-75 CNS): 682 nM
- GI50 (SK-MEL-2 melanoma): 121 nM
- TGI (SK-MEL-2 melanoma): 421 nM
- GI50 (U251 glioblastoma): 270 nM
- TGI (U251 glioblastoma): 1030 nM
- GI50 (SR leukemia): 161 nM
- TGI (SR leukemia): 298 nM
- GI50 (LOX IMVI melanoma): 88.7 nM
- TGI (LOX IMVI melanoma): 268 nM
- GI50 (HCC-2998 colon): 246 nM
- TGI (HCC-2998 colon): 751 nM
- GI50 (SF-268 CNS): 120 nM
- TGI (SF-268 CNS): 501 nM
- GI50 (HOP-62 NSCLC): 148 nM
- TGI (HOP-62 NSCLC): 624 nM
- GI50 (K-562 leukemia): 74.5 nM
- TGI (K-562 leukemia): 1080 nM
- GI50 (NCI-H522 lung): 174 nM
- TGI (NCI-H522 lung): 487 nM
- GI50 (M14 melanoma): 104 nM
- TGI (M14 melanoma): 343 nM
- GI50 (TK-10 renal): 253 nM
- TGI (TK-10 renal): 757 nM
- GI50 (NCI-H460 NSCLC): 66.1 nM
- TGI (NCI-H460 NSCLC): 548 nM
- GI50 (SK-MEL-28 melanoma): 269 nM
- TGI (SK-MEL-28 melanoma): 813 nM
- GI50 (NCI-H23 lung): 211 nM
- TGI (NCI-H23 lung): 594 nM
- GI50 (NCI/ADR-RES ovarian): 326 nM
- TGI (NCI/ADR-RES ovarian): 1190 nM
- GI50 (BT-549 breast): 154 nM
- TGI (BT-549 breast): 423 nM
- GI50 (OVCAR-8 ovarian): 278 nM
- TGI (OVCAR-8 ovarian): 1080 nM
- GI50 (EKVX NSCLC): 251 nM
- TGI (EKVX NSCLC): 836 nM
- GI50 (A549 NSCLC): 222 nM
- TGI (A549 NSCLC): 1060 nM
- GI50 (HOP-92 NSCLC): 373 nM
- TGI (HOP-92 NSCLC): 1640 nM
- GI50 (CAKI-1 renal): 234 nM
- TGI (CAKI-1 renal): 1110 nM
- GI50 (MCF7 breast): 94.9 nM
- TGI (MCF7 breast): 1110 nM
- GI50 (SW-620 colon): 207 nM
- TGI (SW-620 colon): 1070 nM
- GI50 (PC-3 prostate): 222 nM
- TGI (PC-3 prostate): 989 nM
- GI50 ([…]-0 renal): 229 nM
- TGI (786-0 renal): 997 nM
- GI50 (T-47D breast): 269 nM
- TGI (T-47D breast): 992 nM
- GI50 (UACC-62 melanoma): 241 nM
- TGI (UACC-62 melanoma): 811 nM
- GI50 (COLO 205 colon): 164 nM
- TGI (COLO 205 colon): 532 nM
- GI50 (HL-60(TB) leukemia): 32 nM
- TGI (HL-60(TB) leukemia): 108 nM
- GI50 (NCI-H226 lung): 178 nM
- TGI (NCI-H226 lung): 713 nM
